Laboratory results reported in patent publication US7115258B2, “Vesicular monoamine transporter gene therapy in parkinson's disease” (priority 1998, dated 2006).

Test system: dopamine release
Assay: Release of stored dopamine from PFVMAA cells
Format: cell-based, rat
Conditions: 20 μM A23187 in physiological media, 20 minutes
Description: FIG. 3A and FIG. 3B. Release of stored dopamine from PFVMAA. (FIG. 3A) Time course of dopamine release from PFVMAA cells that were preincubated with 1 μM of L-DOPA for 2 hours to store dopamine (intracellular: open bar). After pre-incubation, the media was replaced with fresh media without L-DOPA and dopamine levels in the media (solid bar) were measured at one hour intervals. (FIG. 3B) The dopamine levels in the media (solid bar) and in the cell pellets (open bars) of PFVMAA cells in different calcium conditions. Cells were preincubated with 1 μM L-DOPA in the media for 3 hours, which were replaced with fresh physiological media (control), physiological media with 20 μM A23187 (Sigma), or by calcium-free media with 10 mM EGTA for 20 minutes of further incubation. Data represent the mean±SEM (n=3). n.d., nondetectable levels. n.s., no significant, * p<0.01, Student t-test analysis.
Catecholamine measurements were done in DMEM media (1 ml in each well) except for the experiments on Ca^++ effect which were done in physiological incubation medium consisting of 135 mM NaCl, 3 mM KCl, 2 mM CaCl2, 2 mM MgCl2, 10 mM glucose, 200 μM ascorbic acid, and 10 mM HEPES, pH 7.3.
To investigate the mechanism of dopamine release in the PFVMAA cells, intracellular calcium was manipulated by using calcium-free media and calcium ionophore. […]

CNc1ccc2oc(C[C@H]3O[C@@]4(CC[C@H]3C)O[C@H]([C@H](C)C(=O)c3ccc[nH]3)[C@H](C)C[C@H]4C)nc2c1C(=O)O [calcium ionophore, A23187]
effect on dopamine release from PFVMAA cells: trend for increased release of dopamine
